In patent publication US20250011318A1 (ARCUS BIOSCIENCES, INC., priority 2023, published 2025):

Columns and labels:
[1] = tested on: Jurkat cells; assay: IL-2 secretion assay in CD3/CD28-activated Jurkat cells (AlphaLISA); type: cell-based, human; conditions: Homo sapiens, CD3/CD28 T Cell Activator, 24 h, IL-2 AlphaLISA
Outline: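 IL-2 release quantified by AlphaLISA in supernatants after 24 h CD3/CD28 activation at 37° C. Compounds, 10 μM to 300 pM final in 1:2 steps, were added to 50,000 Jurkat cells/well 1 h before activation; 4-parameter fit gave EC50.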

[2] = biological target: T1, Cbl-b (Homo sapiens, UniProt Q13191); assay: Cbl-b probe displacement HTRF binding assay; conditions: 0.4 nM biotinylated Cbl-b, 150 nM BODIPY probe
T1 construct: biotin (biotinylated)
T1 sequence (Q13191 whole entry, species assumed): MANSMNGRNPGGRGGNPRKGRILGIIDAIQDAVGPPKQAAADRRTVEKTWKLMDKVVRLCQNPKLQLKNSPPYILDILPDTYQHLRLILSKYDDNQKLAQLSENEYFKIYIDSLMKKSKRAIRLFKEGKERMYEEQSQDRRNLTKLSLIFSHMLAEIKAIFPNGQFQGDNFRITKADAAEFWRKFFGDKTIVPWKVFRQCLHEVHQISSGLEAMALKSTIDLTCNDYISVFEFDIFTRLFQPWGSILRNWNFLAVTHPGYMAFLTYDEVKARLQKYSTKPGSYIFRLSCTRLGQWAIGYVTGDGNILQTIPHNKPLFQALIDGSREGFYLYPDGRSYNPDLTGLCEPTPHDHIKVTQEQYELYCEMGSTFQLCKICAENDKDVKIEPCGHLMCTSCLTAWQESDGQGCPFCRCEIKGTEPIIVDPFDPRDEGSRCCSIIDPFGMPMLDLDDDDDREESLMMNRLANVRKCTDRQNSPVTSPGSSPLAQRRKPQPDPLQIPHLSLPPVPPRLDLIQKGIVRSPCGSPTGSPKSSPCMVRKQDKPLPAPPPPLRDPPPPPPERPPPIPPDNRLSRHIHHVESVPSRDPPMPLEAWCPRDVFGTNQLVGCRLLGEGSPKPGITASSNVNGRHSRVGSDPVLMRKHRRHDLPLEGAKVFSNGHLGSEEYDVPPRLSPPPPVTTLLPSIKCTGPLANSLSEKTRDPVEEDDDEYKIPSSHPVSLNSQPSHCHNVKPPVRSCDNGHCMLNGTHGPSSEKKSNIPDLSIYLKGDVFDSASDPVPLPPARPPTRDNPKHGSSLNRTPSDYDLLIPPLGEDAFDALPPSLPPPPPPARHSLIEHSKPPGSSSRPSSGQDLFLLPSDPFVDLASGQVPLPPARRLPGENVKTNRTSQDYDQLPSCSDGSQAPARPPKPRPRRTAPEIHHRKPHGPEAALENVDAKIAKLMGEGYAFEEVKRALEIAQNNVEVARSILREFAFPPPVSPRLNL
Outline: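 Probe-displacement HTRF in Hepes/NaCl/Triton/TCEP/BSA buffer at room temperature: compound dilutions (to 10 μM) incubated 60 min with 0.4 nM biotin-Cbl-b, 150 nM BODIPY probe added for 15 min, Tb-streptavidin read. Signal normalised to DMSO and no-protein controls; IC50 from four-parameter curve.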

Row | EC50 [1] [nM] | IC50 [2] [nM] | SMILES
1 | < 100 | < 100 | COCCCc1nc2c(C(F)(F)F)cn(-c3cc(-c4ccc(F)cc4-c4nncn4C)cc(C4CC4)n3)c(=O)c2[nH]1 [Example 41, 5-{6-Cyclopropyl-4-[4-fluoro-2-(4-methyl-4H-1,2,4-triazol-3-yl)phenyl]-2-pyridyl}-2-(3-methoxypropyl)-7-(trifluoromethyl)-3,5-dihydro-1,3,5-triaza-4-indenone]
2 | < 100 | < 100 | Cn1cc(C#N)nc1-c1cc(F)ccc1-c1cc(C2CC2)nc(-n2cc(C(F)(F)F)c3nc([C@@H]4CCOC4)[nH]c3c2=O)c1 [Example 47, 2-[2-(2-{2-[(S)-Tetrahydro-3-furyl]-4-oxo-7-(trifluoromethyl)-3,5-dihydro-1,3,5-triaza-5-indenyl}-6-cyclopropyl-4-pyridyl)-5-fluorophenyl]-1-methyl-4-imidazolecarbonitrile]
3 | < 100 | < 100 | COc1ccc(-c2cc(C3CC3)nc(-n3cc(C4CC4)c4cc(CN5CCC[C@H](C)C5)[nH]c4c3=O)c2)c(-c2nncn2C)c1 [Example 5, 2-{[(S)-3-Methyl-1-piperidyl]methyl}-4-cyclopropyl-6-{6-cyclopropyl-4-[4-methoxy-2-(4-methyl-4H-1,2,4-triazol-3-yl)phenyl]-2-pyridyl}-1,6-dihydro-1,6-diaza-7-indenone]
4 | < 100 | < 100 | CCOCCNCc1cc2ncn(-c3cc(-c4ccc(F)cc4-c4nncn4C)cc(C4CC4)n3)c(=O)c2[nH]1 [Example 31, 6-{6-cyclopropyl-4-[4-fluoro-2-(4-methyl-4H-1,2,4-triazol-3-yl)phenyl]-2-pyridyl}-2-[(2-ethoxyethylamino)methyl]-1,6-dihydro-1,4,6-triaza-7-indenone]
5 | 100 to 1000 | < 100 | Cn1cnnc1-c1cc(F)ccc1-c1cc(C2CC2)nc(-n2cnc3cc(C4CCOC4)[nH]c3c2=O)c1 (centres unmarked) [Example 125, 3-[6-cyclopropyl-4-[4-fluoro-2-(4-methyl-1,2,4-triazol-3-yl)phenyl]-pyridin-2-yl]-6-(oxolan-3-yl)-5H-pyrrolo[3,2-d]pyrimidin-4-one]
6 | < 100 | < 100 | Cn1cnnc1-c1cc(F)ccc1-c1cc(C2CC2)nc(-n2cc(C#N)c3cc([C@H](N)C(F)(F)F)[nH]c3c2=O)c1 [Example 98, 2-[(S)-1-amino-2,2,2-trifluoroethyl]-6-{6-cyclopropyl-4-[4-fluoro-2-(4-methyl-4H-1,2,4-triazol-3-yl)phenyl]-2-pyridyl}-7-oxo-1,6-dihydro-1,6-diaza-4-indenecarbonitrile]
7 | 100 to 1000 | < 100 | COCCNCc1cc2ncn(-c3cc(-c4ccc(F)cc4-c4ncnn4C)cc(C4CC4)n3)c(=O)c2[nH]1 [Example 118, 3-[6-cyclopropyl-4-[4-fluoro-2-(2-methyl-1,2,4-triazol-3-yl)phenyl]-pyridin-2-yl]-6-[(2-methoxyethylamino)methyl]-5H-pyrrolo[3,2-d]pyrimidin-4-one]
8 | 100 to 1000 | < 100 | Cn1cnnc1-c1cc(F)ccc1-c1cc(C2CC2)nc(-n2cnc3cc(CC4CCCC4)[nH]c3c2=O)c1 [Example 121, 6-(cyclopentylmethyl)-3-[6-cyclopropyl-4-[4-fluoro-2-(4-methyl-1,2,4-triazol-3-yl)phenyl]pyridin-2-yl]-5H-pyrrolo[3,2-d]pyrimidin-4-one]
9 | < 100 | < 100 | Cc1c[nH]nc1-c1cc(C#N)ccc1-c1cc(C2CC2)nc(-n2cc(C3CC3)c3cc(CN4CCC[C@H](C)C4)[nH]c3c2=O)c1 [Example 19, 4-[2-cyclopropyl-6-[4-cyclopropyl-2-[[(3S)-3-methylpiperidin-1-yl]methyl]-7-oxo-1H-pyrrolo[2,3-c]pyridin-6-yl]pyridin-4-yl]-3-(4-methyl-1H-pyrazol-3-yl)benzonitrile]
10 | 100 to 1000 | < 100 | COCCNC(c1cc2ncn(-c3cc(-c4ccc(F)cc4-c4nncn4C)cc(C4CC4)n3)c(=O)c2[nH]1)C(F)(F)F (centres unmarked) [Example 36, 6-{6-cyclopropyl-4-[4-fluoro-2-(4-methyl-4H-1,2,4-triazol-3-yl)phenyl]-2-pyridyl}-2-[2,2,2-trifluoro-1-(2-methoxyethylamino)ethyl]-1,6-dihydro-1,4,6-triaza-7-indenone]
11 | < 100 | < 100 | Cc1ccnnc1-c1cc(C#N)ccc1-c1cc(C2CC2)nc(-n2cc(C3CC3)c3cc(CNC4(CO)CCC4)[nH]c3c2=O)c1 [Example 76, 4-[2-Cyclopropyl-6-[4-cyclopropyl-2-[[[1-(hydroxymethyl)cyclobutyl]-amino]methyl]-7-oxo-1H-pyrrolo[2,3-c]pyridin-6-yl]pyridin-4-yl]-3-(4-methylpyridazin-3-yl)benzonitrile]
12 | 100 to 1000 | < 100 | Cc1cccnc1-c1cc(C#N)ccc1-c1cc(C2CC2)nc(-n2cc(C3CC3)c3cc(CN4CCC[C@H](C)C4)[nH]c3c2=O)c1 [Example 74, 4-[2-cyclopropyl-6-[4-cyclopropyl-2-[[(3S)-3-methylpiperidin-1-yl]methyl]-7-oxo-1H-pyrrolo[2,3-c]pyridin-6-yl]pyridin-4-yl]-3-(3-methylpyridin-2-yl)benzonitrile]
13 | 100 to 1000 | < 100 | C[C@H]1CCCN(Cc2cc3c(C4CC4)cn(-c4cc(-c5ccc(C#N)cc5-c5nc(C(F)(F)F)cn5C)cc(C5CC5)n4)c(=O)c3[nH]2)C1 [Example 117, 4-[2-(2-{[(S)-3-methyl-1-piperidyl]methyl}-4-cyclopropyl-7-oxo-1,6-dihydro-1,6-diaza-6-indenyl)-6-cyclopropyl-4-pyridyl]-3-[1-methyl-4-(trifluoromethyl)-2-imidazolyl]benzonitrile]
14 | < 100 | < 100 | Cn1ccnc1-c1cc(F)ccc1-c1cc(C2CC2)nc(-n2cc(C3CC3)c3cc(CNC4(CO)CCC4)[nH]c3c2=O)c1 [Example 53, 4-cyclopropyl-6-{6-cyclopropyl-4-[4-fluoro-2-(1-methyl-2-imidazolyl)phenyl]-2-pyridyl}-2-{[1-(hydroxymethyl)cyclobutylamino]methyl}-1,6-dihydro-1,6-diaza-7-indenone]
15 | < 100 | < 100 | Cn1cnnc1-c1cc(F)ccc1-c1cc(C2CC2)nc(-n2cc(C(F)(F)F)c3nc(CC4CCC4)[nH]c3c2=O)c1 [Example 42, 2-(Cyclobutylmethyl)-5-{6-cyclopropyl-4-[4-fluoro-2-(4-methyl-4H-1,2,4-triazol-3-yl)phenyl]-2-pyridyl}-7-(trifluoromethyl)-3,5-dihydro-1,3,5-triaza-4-indenone]
16 | < 100 | < 100 | C[C@H]1CCCN(Cc2cc3c(C4CC4)cn(-c4cc(-c5ccc(C#N)cc5-c5nccn5C(F)F)cc(C5CC5)n4)c(=O)c3[nH]2)C1 [Example 15, 4-[2-(2-{1[(S)-3-methyl-1-piperidyl]methyl}-4-cyclopropyl-7-oxo-1,6-dihydro-1,6-diaza-6-indenyl)-6-cyclopropyl-4-pyridyl]-3-[1-(difluoromethyl)-2-imidazolyl]benzonitrile]
17 | 100 to 1000 | < 100 | Cn1cnnc1-c1cc(F)ccc1-c1cc(C2CC2)nc(-n2cnc3cc(CNCC(F)(F)F)[nH]c3c2=O)c1 [Example 33, 6-{6-cyclopropyl-4-[4-fluoro-2-(4-methyl-4H-1,2,4-triazol-3-yl)phenyl]-2-pyridyl}-2-[(2,2,2-trifluoroethylamino)methyl]-1,6-dihydro-1,4,6-triaza-7-indenone]
18 | < 100 | < 100 | Cc1cc(-c2ccc(C#N)cc2-c2nccn2C)cc(-n2cc(C3CC3)c3cc(CN4CCC[C@H](C)C4)[nH]c3c2=O)n1 [Example 81, 4-[2-(2-{[(S)-3-methyl-1-piperidyl]methyl}-4-cyclopropyl-7-oxo-1,6-dihydro-1,6-diaza-6-indenyl)-6-methyl-4-pyridyl]-3-(1-methyl-2-imidazolyl)benzonitrile]
19 | < 100 | < 100 | COCCNCc1cc2ncn(-c3cc(-c4ccc(C#N)cc4-c4nc(C#N)cn4C)cc(C4CC4)n3)c(=O)c2[nH]1 [Example 116, 2-[5-cyano-2-[2-cyclopropyl-6-[6-[(2-methoxyethylamino)methyl]-4-oxo-5H-pyrrolo[3,2-d]pyrimidin-3-yl]pyridin-4-yl]phenyl]-1-methylimidazole-4-carbonitrilef]
20 | 100 to 1000 | < 100 | Cc1ccnn1-c1cc(F)ccc1-c1cc(C2CC2)nc(-n2cc(C3CC3)c3cc(CNC4(C)CCC4)[nH]c3c2=O)c1 [Example 140, 4-cyclopropyl-6-[6-cyclopropyl-4-[4-fluoro-2-(5-methylpyrazol-1-yl)phenyl]pyridin-2-yl]-2-[[(1-methylcyclobutyl)amino]methyl]-1H-pyrrolo[2,3-c]pyridin-7-one]
21 | < 100 | < 100 | N#Cc1c[nH]c2c(=O)n(-c3cc(-c4ccc(F)cc4-c4nncn4C(F)F)cc(C4CC4)n3)cc(C(F)(F)F)c12 [Example 134, 6-[6-cyclopropyl-4-[2-[4-(difluoromethyl)-1,2,4-triazol-3-yl]-4-fluorophenyl]pyridin-2-yl]-7-oxo-4-(trifluoromethyl)-1H-pyrrolo[2,3-c]pyridine-3-carbonitrile]

Row | SMILES | EC50 [1] [nM] | IC50 [2] [nM]
22 | CC(c1cc2c(C3CC3)cn(-c3cc(-c4ccc(C#N)cc4-c4nccn4C)cc(C4CC4)n3)c(=O)c2[nH]1)N1CCC[C@H](C)C1 (mixture of isomers) [Example 100, 4-[2-(2-{1-[(S)-3-methyl-1-piperidyl]ethyl}-4-cyclopropyl-7-oxo-1,6-dihydro-1,6-diaza-6-indenyl)-6-cyclopropyl-4-pyridyl]-3-(1-methyl-2-imidazolyl)benzonitrile] | < 100 | < 100
